Source: patent US11365177B2, “Chemical uncouplers of respiration and methods of use thereof” (Dana-Farber Cancer Institute, Inc., priority 2017, dated 2022)

Columns and labels:
C2C12 cells = assay: Measurement of cellular respiration (Seahorse), uncoupling bioactivity; assay type: cell-based; settings: Mus musculus, Table 5, cyclic head groups, 50 μM compound, maximal increase versus basal oligomycin-treated respiration, means SEM, n=3-6/group, read-out: % stimulation of respiration (baseline = 100%)
Method: Oligomycin was purchased from EMD Millipore, and FCCP and rotenone were purchased from Sigma. C2C12 cells were seeded at 35,000 cells/well in an XF24 cell culture microplate (V7-PS, Seahorse Bioscience) and analyzed the following day. On the day of analysis, the cells were washed once with Seahorse respiration buffer (8.3 g/l DMEM, 1.8 g/l NaCl, 1 mM pyruvate, 20 mM glucose, pen/strep), placed in 0.5 ml Seahorse respiration buffer, and incubated in a CO2-free incubator for 1 h. Port injection solutions were prepared as follows (final concentrations in assay in parentheses): 10 μM oligomycin (1 μM final), 500 μM indicated compound (50 μM final), 2 μM FCCP (0.2 μM final), and 30 μM rotenone (3 μM final). The Seahorse program was run as follows: basal measurement, 3 cycles; inject port A (oligomycin), 3 cycles; inject port B (compounds), 8 cycles; inject port C (FCCP), 3 cycles; inject port D (rotenone), 3 cycles. Each cycle consisted of mix 2 min, wait 0 min, and measure 2 min. For data expressed as a percentage of oligomycin-treated basal, the respiration at cycle 6 was normalized to 100%, and the maximum respiration at any time point between cycles 7 and 15 inclusive was used.
Tables 1-4 show uncoupling bioactivity of compounds of the disclosure with different fatty acid side chains. Respiration in C2C12 cells is shown as maximal increases versus basal oligomycin-treated respiration, which is normalized to 100%. Data are shown as means SEM, n=3-6/group.

mPM20D1 = target: T1, mPM20D1 (Mus musculus, UniProt Q8C165); assay: PM20D1 hydrolysis assay; assay type: in vitro ADME, murine; settings: 10 nmol compound in 100 μl PBS, mPM20D1, 1 h at 37° C., LC-MS; FIG. 2
T1 construct: host or cells: 293T cells (secreted into serum-free conditioned media)
T1 sequence (Q8C165 25-503): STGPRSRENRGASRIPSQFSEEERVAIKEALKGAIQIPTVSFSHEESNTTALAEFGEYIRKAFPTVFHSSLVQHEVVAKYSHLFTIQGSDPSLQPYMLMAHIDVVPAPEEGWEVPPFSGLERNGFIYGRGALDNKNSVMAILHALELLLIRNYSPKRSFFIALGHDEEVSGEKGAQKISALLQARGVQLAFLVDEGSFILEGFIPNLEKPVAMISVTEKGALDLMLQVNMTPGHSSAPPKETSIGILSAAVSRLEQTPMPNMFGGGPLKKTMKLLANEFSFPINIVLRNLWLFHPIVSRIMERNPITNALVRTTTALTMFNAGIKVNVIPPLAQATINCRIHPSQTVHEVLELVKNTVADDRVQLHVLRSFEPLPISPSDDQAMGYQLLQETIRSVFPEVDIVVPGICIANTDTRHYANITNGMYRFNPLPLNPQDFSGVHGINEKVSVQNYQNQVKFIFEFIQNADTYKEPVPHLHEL
Method: Three 10 cm plates of 293T cells were transiently transfected with murine PM20D1-6×His-Flag plasmid (Addgene plasmid #84566) using PolyFect according to the manufacturer's instructions. After 48 h, cells were washed twice in PBS and switched to serum free DMEM with penicillin and streptomycin. Serum free conditioned media was collected 24 h later and concentrated ˜10-fold in 30 kDa MWCO filters (EMD Millipore) according to the manufacturer's instructions. The concentrated media was centrifuged to remove debris (600×g, 10 min, 4° C.) and the supernatant containing PM20D1-flag was decanted into a new tube. PM20D1-flag was immunoaffinity purified overnight at 4° C. from the concentrated media using magnetic Flag-M2 beads (Sigma Aldrich). The beads were collected, washed three times in PBS, eluted with 3× Flag peptide ([…] in PBS, Sigma Aldrich), aliquoted, and stored at −80° C.
10 nmol of the indicated compound was incubated in 100 μl PBS (100 VM initial substrate). Reactions were initiated by the addition of PBS or mPM20D1 (5 μl). After 1 h at 37° C., reactions were quenched with […] of a 2:1 v/v mixture of chloroform and methanol with 10 nmol d31-palmitate as an internal standard. The reactions were vortexed and the organic layer was transferred to a sample vial for analysis by LC-MS. For separation of polar metabolites, normal-phase chromatography was performed with a Luna-[…] NH2 column (50 mm×4.60 mm, Phenomenex). Mobile phases were as follows: Buffer A, acetonitrile; Buffer B, 95:5 water/acetonitrile with 0.1% formic acid or 0.2% ammonium hydroxide with 50 mM ammonium acetate for positive and negative ionization mode, respectively. The flow rate for each run started at 0.2 ml/min for 2 min, followed by a gradient starting at 0% B and increasing linearly to 100% B over the course of 15 min with a flow rate of 0.7 ml/min, followed by an isocratic gradient of 100% B for 10 min at 0.7 ml/min before equilibrating for 5 min at 0% B with a flow rate of 0.7 ml/min. MS analysis was performed with an electrospray ionization (ESI) source on an Agilent 6430 QQQ LC-MS/MS. The capillary voltage was set to 3.5 kV, and the fragmentor voltage was set to 100 V. The drying gas temperature was 325° C., the drying gas flow rate was 10 l/min, and the nebulizer pressure was 45 psi. Monitoring of hydrolysis starting materials and products was performed by scanning a mass range of m/z 50-1200. Peaks corresponding to the liberated fatty acids (products) or the intact starting material was integrated.

[1] = Liver microsome stability assay; assay type: in vitro ADME; settings: mouse liver microsomes 1 mg/mL, 1 μM compound, NADPH, pH 7.4, 37 C; FIG. 3
Method: The compounds were evaluated in a mouse liver microsome assay.
Microsome stability was evaluated by incubating 1 μM test compound with 1 mg/mL hepatic microsomes in 100 mM KPi, pH 7.4 at 37 C with shaking. The reaction was initiated by adding NADPH (1 mM final concentration). Aliquots were removed at 0, 5, 10, 20, 40, and 60 minutes and added to acetonitrile (5× v:v) to stop the reaction and precipitate the protein. NADPH dependence of the reaction was evaluated with -NADPH samples. At the end of the assay, the samples were centrifuged through a Millipore Multiscreen Solvinter 0.45 micron low binding PTFE hydrophilic filter plate and analyzed by LC-MS/MS. Data is log transformed and represented as half-life.

[2] = Plasma concentration after compound administration in DIO mice; assay type: in vivo; settings: 10 mg/kg, 1 hour after administration, FIG. 5
Method: DIO mice (19 weeks, males, stock #380050) were purchased from The Jackson Laboratory. Prior to compound administration, mice were mock injected with vehicle (18:1:1 v/v/v saline:DMSO:Kolliphor EL) for 4 days. Compounds 33 and 37 were prepared in the same vehicle and administered at 10 mg/kg doses. Plasma concentration was measured 1 hour after compound administration.

DIO mice = assay: Treatment of DIO mice with compound: body weight and food intake; assay type: in vivo
Method: DIO mice (19 weeks, males, stock #380050) were purchased from The Jackson Laboratory. Mice were maintained on a high fat diet for the duration of the experiment (60% fat, Research Diets). Prior to compound administration, mice were mock injected with vehicle (18:1:1 v/v/v saline:DMSO:Kolliphor EL, intraperitoneal) for 4 days. Compound 33 was prepared in the same vehicle and administered at 5 μl/g body weight at the indicated doses. Administration of vehicle of compound occurred once per day. Data shown in FIG. 4A compared changes in body weights of representative mice at day 7 versus initial weight on day 0. Data shown in FIG. 4B represented average food intake per mouse over the 7 day dosing period for each treatment group.

microsome stability (in vitro half-life) [1] | SMILES | activity at 50 µM (C2C12 cells) [%] | hydrolysis by PM20D1 (mPM20D1) | pharmacokinetic properties in vivo (plasma concentration) [2] | uncoupling bioactivity in vivo (DIO mice; DIO mice on high fat diet, intraperitoneal, once per day) | average food consumed per mouse per day (DIO mice; DIO mice, different treatment groups, 7 day dosing period, FIG. 4B) | change in body weight from the initial weight (DIO mice; DIO mice, higher doses, once per day, day 7 versus day 0, FIG. 4A)
long in vitro half-lives | CCCCC/C=C\C/C=C\CCCCCCCC(=O)N1Cc2ccccc2[C@H]1C(=O)O [Compound 36, (S)-2-((9Z,12Z)-Octadeca-9,12-dienoyl)isoindoline-1-carboxylic acid] | 185 ± 18 | entirely resistant to hydrolysis by PM20D1 | – | – | – | –
long in vitro half-lives | CCCCCCCC/C=C\CCCCCCCC(=O)N1Cc2ccccc2[C@H]1C(=O)O [Compound 33, (S)-2-Oleoylisoindoline-1-carboxylic acid] | 240 ± 24 | entirely resistant to hydrolysis by PM20D1 | augmented pharmacokinetic properties in vivo | possesses uncoupling bioactivity in vivo | consumed the same amount of food per mouse per day | statistically significant weight loss over time
long in vitro half-lives | CCCCC/C=C\C/C=C\CCCCCCCC(=O)N1Cc2ccccc2[C@@H]1C(=O)O [Compound 37, (R)-2-((9Z,12Z)-Octadeca-9,12-dienoyl)isoindoline-1-carboxylic acid] | 190 ± 12 | entirely resistant to hydrolysis by PM20D1 | augmented pharmacokinetic properties in vivo | – | – | –
long in vitro half-lives | CCCCCCCC/C=C\CCCCCCCC(=O)N1Cc2ccccc2[C@@H]1C(=O)O [Compound 34, (R)-2-Oleoylisoindoline-1-carboxylic acid] | 190 ± 12 | entirely resistant to hydrolysis by PM20D1 | – | – | – | –
